The source of these data is ChEMBL document CHEMBL5233269, “Anticancer potential of spirocompounds in medicinal chemistry: A pentennial expedition” (Eur J Med Chem, 2021).

The subject of data set [1] is HepG2. The data set is described as follows: Cytotoxicity against human HepG2 cells incubated overnight by MTT assay. In kind it is functional, cell-based. Background: Formazan colour is commonly taken as a measure of viable cells.
For a further data set, the system named is HCT-116. The data set is described as follows: Cytotoxicity against human HCT-116 cells incubated overnight by MTT assay. In kind it is functional, cell-based.
The next data set deals with L02. Put plainly: Antiproliferative activity against human L02 cells by MTT assay. Type of data set: functional, cell-based.
Data set [2] concerns HepG2. The data set is described as follows: Antiproliferative activity against human HepG2 cells by MTT assay. Type of data set: functional, cell-based.
For a further data set, the system named is DU-145. Put plainly: Anticancer activity against human DU-145 cells measured after 48 hrs by MTT assay. Type of data set: functional, cell-based. Conditions: DU-145, 48 h.
The next data set concerns LNCaP. Put plainly: Anticancer activity against human LNCaP cells measured after 48 hrs by MTT assay. Type of data set: functional, cell-based.
In data set [3] the test system is MCF7. The data set is described as follows: Anticancer activity against human MCF7 cells measured after 48 hrs by MTT assay. Conditions: MCF7, 48 h. Type of data set: functional, cell-based.
The next data set has as its system Ishikawa. The data set is described as follows: Anticancer activity against human Ishikawa cells measured after 48 hrs by MTT assay. In kind it is functional, cell-based.
A further data set relates to MDA-MB-231. Put plainly: Anticancer activity against human MDA-MB-231 cells measured after 48 hrs by MTT assay. Conditions: MDA-MB-231, 48 h. Type of data set: functional, cell-based.
The test system of data set [4] is MCF7. The data set is described as follows: Anticancer activity against human MCF7 cells at 10 uM by MTT assay relative to control. In kind it is functional.
A further data set deals with Ehrlich. The data set is described as follows: Antitumor activity against mouse Ehrlich ascites carcinoma xenografted in mouse model assessed tumor growth inhibition relative to control. Type of data set: functional. Also on record: scale not given: the % may be the effect or the level left.
Data set [5] deals with T1, Amine oxidase [flavin-containing] A (Rattus norvegicus, UniProt P21396).
T1 sequence (P21396 whole entry): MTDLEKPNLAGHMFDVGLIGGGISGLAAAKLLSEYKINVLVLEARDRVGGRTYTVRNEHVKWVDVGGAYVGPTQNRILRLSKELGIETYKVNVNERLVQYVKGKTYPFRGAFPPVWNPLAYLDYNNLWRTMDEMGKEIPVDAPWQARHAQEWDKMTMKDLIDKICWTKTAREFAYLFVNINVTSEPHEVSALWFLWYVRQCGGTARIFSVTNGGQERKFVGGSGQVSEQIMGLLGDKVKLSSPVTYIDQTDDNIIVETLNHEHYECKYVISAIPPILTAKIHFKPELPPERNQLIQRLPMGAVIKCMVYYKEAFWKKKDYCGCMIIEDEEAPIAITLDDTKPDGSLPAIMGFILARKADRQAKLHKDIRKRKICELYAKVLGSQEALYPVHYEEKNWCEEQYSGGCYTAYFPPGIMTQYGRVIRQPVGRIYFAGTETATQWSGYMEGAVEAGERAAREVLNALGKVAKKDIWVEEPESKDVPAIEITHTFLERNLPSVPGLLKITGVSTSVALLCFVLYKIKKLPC
The data set is described as follows: Inhibition of rat brain MAO-A relative to control. Type of data set: tissue-based.

Another data set concerns Sarcoma-180. Put plainly: Antitumor activity against mouse Sarcoma-180 xenografted in mouse model assessed tumor growth inhibition relative to control. Type of data set: functional. Set-up: scale not given: the % may be the effect or the level left.
Another data set concerns B16-F10. The data set is described as follows: Anticancer activity against mouse B16-F10 cells incubated for 48 hrs by MTT assay. Type of data set: functional, cell-based. Conditions: B16-F10, 48 h.
Data set [6] relates to MCF7. The data set is described as follows: Anticancer activity against human MCF7 cells assessed as reduction in cell viability incubated for 48 hrs by MTT assay. Type of data set: functional, cell-based. The note with it: MCF7, 48 h.
The test system of data set [7] is A549. Put plainly: Anticancer activity against human A549 cells assessed as reduction in cell viability incubated for 48 hrs by MTT assay. In kind it is functional, cell-based. The note with it: A549, 48 h.
For data set [8], the system named is HeLa. The data set is described as follows: Cytotoxicity against human HeLa cells incubated for 24 hrs by MTT assay. In kind it is functional, cell-based.
For data set [9], the system named is HeLa. The data set is described as follows: Cytotoxicity against human HeLa cells incubated for 48 hrs by MTT assay. In kind it is functional, cell-based.
The test system of another data set is HT-29. Put plainly: Antiproliferative activity against human HT-29 cells measured after 48 hrs by MTT assay. Conditions: HT-29, 48 h. In kind it is functional, cell-based.
The subject of data set [10] is A549. The data set is described as follows: Antiproliferative activity against human A549 cells measured after 48 hrs by MTT assay. In kind it is functional, cell-based. Conditions: A549, 48 h.
Data set [11] concerns HeLa. Put plainly: Antiproliferative activity against human HeLa cells measured after 48 hrs by MTT assay. In kind it is functional, cell-based.
Another data set concerns SW480. Put plainly: Antiproliferative activity against human SW480 cells measured after 48 hrs by MTT assay. In kind it is functional, cell-based. The note with it: SW480, 48 h.
For another data set, the system named is HL-60. The data set is described as follows: Antiproliferative activity against human HL-60 cells measured after 48 hrs by MTT assay. Type of data set: functional, cell-based. Conditions: HL-60, 48 h.
Data set [12] in a line: Antiproliferative activity against human […] cells measured after 48 hrs by MTT assay. Type of data set: functional, cell-based.
The test system of data set [13] is HepG2. The data set is described as follows: Antiproliferative activity against human HepG2 cells measured after 48 hrs by MTT assay. Type of data set: functional, cell-based. Conditions: HepG2, 48 h.
For data set [14], the system named is MCF7. The data set is described as follows: Antiproliferative activity against human MCF7 cells measured after 48 hrs by MTT assay. In kind it is functional, cell-based. The note with it: MCF7, 48 h.
Data set [15] concerns MCF7. Put plainly: Anticancer activity against human MCF7 cells assessed as inhibition of cell growth by MTT assay. In kind it is functional, cell-based.
Data set [16] concerns A549. Put plainly: Anticancer activity against human A549 cells assessed as inhibition of cell growth by MTT assay. Type of data set: functional, cell-based.
Data set [17] has as its system HeLa. The data set is described as follows: Anticancer activity against human HeLa cells assessed as inhibition of cell growth by MTT assay. In kind it is functional, cell-based.
Another data set has as its system MGC-803. Put plainly: Cytotoxicity against human MGC-803 cells assessed as inhibition of tumor cell proliferation incubated for 72 hrs by MTT assay. In kind it is functional, cell-based. Conditions: MGC-803, 72 h.
A further data set relates to SMMC-7721. Put plainly: Cytotoxicity against human SMMC-7721 cells assessed as inhibition of tumor cell proliferation incubated for 72 hrs by MTT assay. In kind it is functional, cell-based. Conditions: SMMC-7721, 72 h.
Data set [18] deals with A549. Put plainly: Cytotoxicity against human A549 cells assessed as inhibition of tumor cell proliferation incubated for 72 hrs by MTT assay. In kind it is functional, cell-based. The note with it: A549, 72 h.

With `O=C(/C=C/c1cccc(Br)c1)[C@H]1[C@H](c2cccc(Br)c2)C2CSCN2[C@]12C(=O)Nc1cc(Br)c(Br)cc12` (stereo partly drawn), the figures for the IC50 in the data set with HepG2 [1] and with HCT-116 were 0.9 µM and 1.57 µM, respectively.

As to `O=C1C(=O)C2C(N=C3N=NNN3C23C(=O)Nc2c(C(F)(F)F)cccc23)c2ccccc21` (stereo not drawn), the IC50 was found to be 49.9 µM with L02 and 7.9 µM with HepG2 [2].

Take `O=C1NC2(C3=C(C(=O)C4C=CC=CC4C3=O)c3cc(Cl)ccc32)c2ccccc21` (stereo not drawn): the IC50 is 1.68 µM with DU-145; 5.34 µM in the data set on LNCaP; 5.11 µM in the data set with MCF7 [3]; 1.39 µM in the data set with Ishikawa; 17.6 µM in the data set with MDA-MB-231.

Take `O=C1NC2(C3=C(C(=O)C4C=CC=CC4C3=O)c3ccccc32)c2cc(Cl)c(Cl)cc21` (stereo not drawn): the 50% inhibitory concentration (IC50) in the data set on DU-145 came out at 2.13 µM; in the data set on LNCaP, 1.1 µM; with MCF7 [3] it was 1.02 µM; in the data set on Ishikawa, 0.75 µM; with MDA-MB-231, 3.01 µM.

As for `CCOC(=O)c1[nH]nc2c1C1(C(=O)N(C(C)=O)c3ccccc31)C(C#N)=C(N)O2` (stereo not drawn), in the data set on MCF7 [4], testing at 10 µM gave an inhibition of 15.7%.

Regarding `CCn1c(SCC(=O)Nc2ccccc2)nc2c(c1=O)C1(CCCCC1)Cc1ccccc1-2`, the Activity with Ehrlich came out at 75%; in the data set on Sarcoma-180, 55%. For the same compound, in data set [5], the “inhibition (INH)” value came out at 32%.

Turning to `COC1=CC2(C=C(C(=O)Oc3cccc(F)c3F)c3cc(OC)cc(OC)c32)C(OC)=CC1=O` (stereo not drawn), the values for the IC50 in the data set on B16-F10, in the data set on MCF7 [6] and in the data set with A549 [7] were 10.9 µM, 13.1 µM and 9.58 µM, respectively.

Consider `Cc1cn(CN2C(=O)C3(c4ccccc42)C(C(=O)c2ccc(F)cc2)C3C(=O)c2ccc(Cl)cc2)nn1` (stereo not drawn), for which the IC50 in the data set on HeLa [8] was 11.2 µM; in the data set with HeLa [9] it was 6.3 µM.

`CC(C)CCC[C@@H](C)[C@@H]1CCC2C3C[C@@]4(N=C5C=CC=CN5/C4=N\c4ccccc4)C4C[C@@H](Cl)CC[C@]4(C)C3CC[C@@]21C` (stereo partly drawn): the IC50 is 2.18 µM in the data set on HT-29; 3.09 µM in the data set on A549 [10]; 5.41 µM in the data set on HeLa [11]; 3.42 µM with SW480; 2.62 µM in the data set on HL-60; 3.17 µM in data set [12]. Also, the IC50 came to 5.32 µM in the data set on HepG2 [13] and 3.93 µM in the data set with MCF7 [14].

Turning to `COC1=CC2(C=C(C(=O)NNc3ccc(OC(F)(F)F)cc3)c3cc(OC)cc(OC)c32)C(OC)=CC1=O` (stereo not drawn), the IC50 with B16-F10 turned out to be 19.3 µM; with MCF7 [6] it was 15.3 µM; in the data set on A549 [7], 17.9 µM.

With `O=C1Nc2ccc(Br)cc2C12c1c([nH]c(=O)[nH]c1=O)N(c1ccc(N3CCOCC3)c(F)c1)c1[nH]c(=O)[nH]c(=O)c12`, the IC50 with MCF7 [15] is 23 µM; with A549 [16], 25.6 µM; with HeLa [17], 6.81 µM.

Turning to `C[C@]12CC[C@H](O)CC1=CCC1C2CC[C@@]2(C)C1CC[C@@H]2C1=CC2(C(=O)N(Cc3ccc(Cl)c(Cl)c3)c3ccccc32)C(C#N)=C(N)N1` (stereo partly drawn), the half-inhibitory concentration (IC50) in the data set with MGC-803, in the data set with SMMC-7721 and in the data set on A549 [18] was above 128 µM in each case.

With `O=C1NC2(C3=C(C(=O)C4C=CC=CC4C3=O)c3ccccc32)c2ccccc21` (stereo not drawn), the IC50 with DU-145 turned out to be 2.18 µM; in the data set with LNCaP it was 0.67 µM; with MCF7 [3], 0.82 µM; with Ishikawa, 1.9 µM; with MDA-MB-231 it was 6.88 µM.

In the case of `CC(C)CCC[C@@H](C)[C@@H]1CCC2C3C[C@@]4(N=C5C=CC(Cl)=CN5/C4=N\Cc4ccccc4)C4C[C@@H](Cl)CC[C@]4(C)C3CC[C@@]21C` (stereo partly drawn), the IC50 in the data set with HT-29 was determined as 4.63 µM; in the data set with A549 [10], 3.43 µM; in the data set on HeLa [11] it was 5.23 µM; with SW480 it was 2.33 µM; in the data set with HL-60, 5.17 µM; in data set [12], 4.67 µM. Besides, the concentration for half-maximal inhibition (IC50) in the data set with HepG2 [13] was 5.37 µM; in the data set on MCF7 [14], 3.24 µM.

As to `O=C1C(=O)C2C(N=C3N=NNN3C23C(=O)Nc2ccc(F)cc23)c2ccccc21` (stereo not drawn), the values for the IC50 with L02 and in the data set on HepG2 [2] were 58.9 µM and 2.86 µM, respectively.

For the compound `CC(C)CCC[C@@H](C)[C@@H]1CCC2C3C[C@@]4(N=C5C=CC=CN5/C4=N\c4ccccc4)C4CCCC[C@]4(C)C3CC[C@@]21C` (stereo partly drawn), the IC50 in the data set with HT-29 was found to be 3.1 µM; in the data set with A549 [10], 2.62 µM; in the data set on HeLa [11], 3.84 µM; in the data set on SW480 it was 5.21 µM; with HL-60 it was 5.07 µM; in [12], 5.38 µM. The IC50 came out at 4.24 µM with HepG2 [13] and 4.8 µM with MCF7 [14].

For orientation: IC50 means the concentration that inhibits the measured activity by half. Broadly, the inhibition is the change of the read-out against control, counted positive when it falls.
